According to patent US6087358A (priority 1997, dated 2000):
In brackets after ≈: the same amount, converted by molar mass. Where two headings read alike, the source gives them in different places.

Legend:
[1] = test system: Mycobacterium bovis BCG (recombinant strain); test: microbe, parasite or virus in culture; type: cell-based; conditions: Mycobacterium tuberculosis variant bovis BCG, BCG, 144 h; 6 days 37° C.; read-out: MIC, column A, 3(S) compounds
[2] = test system: Mycobacterium tuberculosis (rMTB); test: In vivo antimycobacterial activity against M. tuberculosis (rMTB) in spleens of mice; design: species or system Mycobacterium tuberculosis Erdman, in female BALB/c mice; conditions: 25 mg/kg daily oral gavage, CM-2, 10 days, control 422,866 (PA-824, 636, 1297) or 362,274 (others)
[3] = test system: Mycobacterium tuberculosis (rMTB); test: In vivo antimycobacterial activity against M. tuberculosis (rMTB) in lungs of mice; design: species or system Mycobacterium tuberculosis Erdman, in female BALB/c mice; conditions: 25 mg/kg daily oral gavage, CM-2, 10 days, control 117,258 (PA-824, 636, 1297) or 22,751 (others)
[4] = test system: Mycobacterium bovis (rBCG-lux); test: microbe, parasite or virus in culture; type: cell-based, Mycobacterium bovis bacille Calmette Guerin; conditions: Mycobacterium tuberculosis variant bovis, 72 h; read-out: % of control, measured in RLUs
[5] = test system: M. tuberculosis H37 Rv in human THP-1 macrophages; test: In vitro activity against M. tuberculosis in human macrophages (luciferase bioluminescence); type: cell-based, Mycobacterium tuberculosis, in human THP-1 cells
[6] = test system: Cryptosporidium parvum; test: Inhibition of Cryptosporidium parvum (ELISA, infected HCT-8 monolayers); type: cell-based
Experimental: Susceptibility testing against Cryptosporidium was performed according to published procedures (K. Woods, M. Nesterenko, S. Upton, "Development of a microtiter ELISA to quantify development of Cryptosporidium parvum in vitro," FEMS Microbiology Letters, 128:89-94 (1995).
Compounds were solubilized to a concentration of 100 mg/mL in 100% DMSO. DMSO solutions of test compounds were added to the test wells of a microplate at a volume that produced a final concentration of DMSO of 0.2%. Monolayers of human ileocecal adenocarcinoma cells (HCT-8) were prepared by growth in RPMI 1640 medium in 96-Well tissue culture trays for 24 h. Oocysts of C. parvum were allowed to excyst in 10% bleach for 10 min prior to use. Monolayers were then infected with 2-3×10^4 oocysts/well and incubated in the presence or absence of compound for 48 h at 35° C. in 5% CO2 and 95% humidity. Background consisted of wells containing killed oocysts (freeze thaw cycle following 30 sec exposure to liquid nitrogen). Growth control wells were infected with 2-3×10^4 oocysts/well in the absence of test compounds. At the end of incubation, wells were washed and fixed by adding 100 uL of 4% formalin in phosphate buffered saline (pH 7.3) per well for 2 h. After blocking with 1% bovine serum albumin, and 0.002% Tween 20, 50 uL of rat anti-Cryptosporidium membrane protein antiserum was added. After 30 min, wells were washed in PBS and 50 uL of secondary antibody (goat anti-rat antibody conjugated with horseradish peroxidase) was added. After 20-30 min, wells were washed again in PBS and 50 uL of 3,3',5,5'-tetramethylbenzidine solution was added. Plates were allowed to develop for 10-15 min and the optical density was read at 630 nm. Percent inhibition was calculated by comparing the optical density of the drug treated group to that of the untreated control.

[7] = test system: Helicobacter felis; test: In vivo activity against Helicobacter felis in mice (urease test of stomach biopsy); design: species or system in female CD-1 mice; conditions: 50 mg/kg three times daily oral gavage, CM-2, four days; vehicle and untreated 100
Experimental: Female CD-1 mice weighing 30 grams were infected by oral gavage with 10^8 -10^9 colony forming units of H. felis. This infection process was repeated two, and four days, thereafter. Colonization of the stomach was allowed to occur over a seven day period. Animals were segregated into groups of five, and were treated three times daily by oral gavage with 50 mg/kg of test drugs prepared in the CM-2 formulation vehicle (Example 52). Treatment continued for four days. One group of animals received an equal volume of formulation vehicle alone, to ensure that the vehicle had no effect on the Helicobacter infection. A separate untreated control group was also included.
All animals were then sacrificed, the stomachs were removed, opened, and the contents washed out. A five millimeter diameter biopsy was removed, and transferred to a urease test solution containing a pH-sensitive dye, which was then incubated at 37° C. incubator for 24 hours. A blue or purple coloration in this test solution signifies a positive reaction, indicating the continued presence of viable Helicobacter bacteria; a negative result is indicated by a yellow coloration. Viable Helicobacter bacteria produce a urease enzyme which converts urea, of which there is an abundant supply in the stomach (from saliva and gastric juices), into bicarbonate and ammonia, which are strong bases. This mechanism is considered to provide conditions more amenable to the survival of Helicobacter in the otherwise acidic conditions prevalent in the stomach.

[8] = test system: Helicobacter pylori; test: In vitro inhibition of Helicobacter pylori (broth microdilution MIC); conditions: Helicobacter pylori

O=[N+]([O-])c1cn2c(n1)OC[C@@H](OCc1ccc(OC(F)(F)F)cc1)C2 [PA-824, 3S 4-(Trifluromethoxy)benzyloxy-6-nitro-2H-3,4-dihydro-[2-1b]imidazopyran]
MIC [1]: 0.06 µg/mL (≈ 0.167 µM)
Average RLUs, M. tuberculosis (rMTB) in spleens [2]: 53,540 RLUs
Average RLUs, M. tuberculosis (rMTB) in lungs [3]: 2,496 RLUs
activity at 0.15 µg/mL [4]: 29.4%
activity at 0.31 µg/mL [4]: 12.3%
activity at 0.62 µg/mL [4]: 0.6%
activity at 1.25 µg/mL [4]: 0.3%
activity at 2.5 µg/mL [4]: 0.2%
activity at 5 µg/mL [4]: 0.1%
RLU values ([5]; 0.06 μg/mL, day 1): 25856 RLU
RLU values ([5]; 0.06 μg/mL, day 2): 93959 RLU
RLU values ([5]; 0.06 μg/mL, day 3): 109301 RLU
RLU values ([5]; 0.06 μg/mL, day 4): 118318 RLU
RLU values ([5]; 0.06 μg/mL, day 7): 138792 RLU
RLU values ([5]; 0.13 μg/mL, day 1): 16904 RLU
RLU values ([5]; 0.13 μg/mL, day 2): 40573 RLU
RLU values ([5]; 0.13 μg/mL, day 3): 29162 RLU
RLU values ([5]; 0.13 μg/mL, day 4): 27802 RLU
RLU values ([5]; 0.13 μg/mL, day 7): 28699 RLU
RLU values ([5]; 0.25 μg/mL, day 1): 15814 RLU
RLU values ([5]; 0.25 μg/mL, day 2): 18064 RLU
RLU values ([5]; 0.25 μg/mL, day 3): 13413 RLU
RLU values ([5]; 0.25 μg/mL, day 4): 8684 RLU
RLU values ([5]; 0.25 μg/mL, day 7): 6437 RLU
RLU values ([5]; 0.5 μg/mL, day 1): 10021 RLU
RLU values ([5]; 0.5 μg/mL, day 2): 9610 RLU
RLU values ([5]; 0.5 μg/mL, day 3): 6579 RLU
RLU values ([5]; 0.5 μg/mL, day 4): 5068 RLU
RLU values ([5]; 0.5 μg/mL, day 7): 2957 RLU
RLU values ([5]; 1.0 μg/mL, day 1): 8197 RLU
RLU values ([5]; 1.0 μg/mL, day 2): 5588 RLU
RLU values ([5]; 1.0 μg/mL, day 3): 3950 RLU
RLU values ([5]; 1.0 μg/mL, day 4): 2686 RLU
RLU values ([5]; 1.0 μg/mL, day 7): 1986 RLU
RLU values ([5]; 2.0 μg/mL, day 1): 4571 RLU
RLU values ([5]; 2.0 μg/mL, day 2): 3833 RLU
RLU values ([5]; 2.0 μg/mL, day 3): 2567 RLU
RLU values ([5]; 2.0 μg/mL, day 4): 1507 RLU
RLU values ([5]; 2.0 μg/mL, day 7): 1217 RLU
minimal effective concentration ([5]; Mycobacterium tuberculosis, H37RV, human THP-1 macrophages, read-out: concentrations sufficient to prevent intracellular growth of M. tuberculosis): ≥ 0.25 µg/mL
dose-related response ([5]; concentrations up to 2.0 μg/ml): A clear dose-related response
dose-related response ([6]; C. parvum growth): A clear dose-related response
IC50 ([6]; Cryptosporidium parvum, HCT-8): 25 µg/mL (≈ 69.6 µM)
inhibition at 5 µg/mL ([6]; Cryptosporidium parvum, HCT-8, 5 μg/mL, 48 h, read-out: Percent Inhibition of C. parvum): 3.1%
inhibition at 10 µg/mL ([6]; Cryptosporidium parvum, HCT-8, 10 μg/mL, 48 h, read-out: Percent Inhibition of C. parvum): 17%
inhibition at 20 µg/mL ([6]; Cryptosporidium parvum, HCT-8, 20 μg/mL, 48 h, read-out: Percent Inhibition of C. parvum): 40%
inhibition at 25 µg/mL ([6]; Cryptosporidium parvum, HCT-8, 25 μg/mL, 48 h, read-out: Percent Inhibition of C. parvum): 52%
inhibition at 50 µg/mL ([6]; Cryptosporidium parvum, HCT-8, 50 μg/mL, 48 h, read-out: Percent Inhibition of C. parvum): 93%
inhibition at 100 µg/mL ([6]; Cryptosporidium parvum, HCT-8, 100 μg/mL, 48 h, read-out: Percent Inhibition of C. parvum): 87%
% Survival [7]: 40%
MIC ([8]; 72 h, read-out: MIC against Helicobacter pylori, strain 17 (Table 5A)): > 25 µg/mL
MIC ([8]; 72 h, read-out: MIC against Helicobacter pylori, strain 19 (Table 5A)): 0.4 µg/mL (≈ 1.11 µM)
MIC ([8]; 72 h, read-out: MIC against Helicobacter pylori, strain 20 (Table 5A)): 0.2 µg/mL (≈ 0.557 µM)
MIC ([8]; 72 h, read-out: MIC against Helicobacter pylori, strain 40 (Table 5A)): 0.4 µg/mL (≈ 1.11 µM)
MIC ([8]; 72 h, read-out: MIC against Helicobacter pylori, strain 43 (Table 5A)): 0.8 µg/mL (≈ 2.23 µM)
MIC ([8]; 72 h, read-out: MIC against Helicobacter pylori, strain 76 (Table 5A)): 12.5 µg/mL (≈ 34.8 µM)
MIC ([8]; ATCC43504, 72 h, read-out: MIC against Helicobacter pylori, strain ATCC 43504 (Table 5A)): > 25 µg/mL
